These results are taken from patent US8183243B2, “Melanocortin receptor agonists” (LG Life Sciences Ltd., priority 2008, dated 2012).

One may read the EC50 as the concentration giving half of the maximal effect.

T1 sequence (P32245 whole entry, species assumed): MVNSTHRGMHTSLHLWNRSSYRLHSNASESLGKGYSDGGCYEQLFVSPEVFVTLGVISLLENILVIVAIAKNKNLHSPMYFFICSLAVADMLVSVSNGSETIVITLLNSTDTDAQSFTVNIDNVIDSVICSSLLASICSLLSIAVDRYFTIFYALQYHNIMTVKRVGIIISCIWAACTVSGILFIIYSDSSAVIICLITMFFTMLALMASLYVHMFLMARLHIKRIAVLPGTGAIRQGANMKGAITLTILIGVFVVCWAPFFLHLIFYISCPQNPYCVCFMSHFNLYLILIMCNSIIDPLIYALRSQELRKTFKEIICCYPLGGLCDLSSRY

One experiment concerns the target T1, MC4R (Homo sapiens, UniProt P32245).
T1 construct: expressed in transfected cells; host or cells: HEK (Human Embryonic Kidney) permanent expression cell line HEK MC4R-Luc, co-expressing CRE-luciferase
The experiment in a line: MCR agonistic activity (luciferase assay / cAMP accumulation assay) on MC4R. The experiment is classed as cell-based. The note with it: HEK cell lines expressing MC4R; method A (CRE-luciferase) or B (cAMP accumulation), not said which; read-out: EC50 value, agonistic activity to MC4R (range per group of Examples). The procedure: Physiological activity of the compounds of the present invention was assessed by measuring agonistic activity as well as binding activity for melanocortin receptors (MCR) according to methods A and B explained as follows.
As one of the methods to measure MCR agonistic activity of the compound according to the present invention, the expression level of a marker gene (for example, luciferase) which increases proportionally according to the increase of cAMP content in the cell, was measured.
First, permanent expression HEK (Human Embryonic Kidney) cell lines (HEK MC1R-Luc, MC3R-Luc, MC4R-Luc or MC5R-Luc) expressing the MCR gene of each subtype together with luciferase gene (CRE-LUC) under the control of CRE (cAMP Response Element) were constructed. The above cell lines were incubated in an incubator with 6% CO2 atmosphere at 37° C. using selection medium, DMEM(Dulbecco's Modified Eagles Medium) containing 10% heat-inactivated fetal bovine serum (Gibco/BRL), 100 unit/ml, penicillin (Gibco/BRL), 100 unit/ml streptomycin (Gibco/BRL), and 200 μg/ml geneticin (G418) (Gibco/BRL). When the cell covered 70% of total surface of the culture dish with 100 mm diameter, the culture dish was rinsed one time with 10 ml Phosphate Buffered Saline(PBS) free of Ca^++ and Mg^++, and then 3 ml PBS solution containing 0.05% trypsin and 0.53 mM EDTA was added thereto. After the trypsin/EDTA solution was removed, the cell lines were incubated in an thermostatic incubator for 1 minute at 37° C., and resuspended in 10 ml selection medium and centrifuged for 5 minutes at 1500 rpm. The supernatant was discarded and the settled cells were resuspended in 5 ml selection medium free of Phenol Red. The resulting cell-suspension was plated onto each well of 96-well culture plates for Luminometer(Costar) with a concentration of 5×10^4 cell in 100 μl culture medium for each well and incubated in the incubator with 6% CO2 atmosphere at 37° C. for 18 hours. With MCR agonists (Example compounds) diluted stepwise using the above culture medium, the cells were treated under the condition of the final DMSO concentration not exceeding 1%, and incubated for 5 hours in the atmosphere of 6% CO2 at 37° C. Then, 50 μl Bright-Glo (Promega) was added to each well. After allowing the treated cells to be at room temperature for 15 minutes, luminescence was measured for each well by using luminometer (Victor). The level of luminescence induced by the stepwise-diluted agonist was converted to relative % value to those by the treatment of 10 nM NDP-MSH. The EC50 indicates the concentration of each agonist for inducing 50% of maximal luminescence by each agonist and this value was measured by a statistical software (Prizm).
B. cAMP Accumulation Assay
As another method to measure MCR agonistic activity of the compound according to the present invention, an increase of cAMP amount in the cell was measured.
First, permanent expression HEK (Human Embryonic Kidney) cell lines (HEK MC1R-Luc, MC3R-Luc, MC4R-Luc or MCSR-Luc) expressing the MCR gene of each subtype were plated onto each well of 24-well culture plates for Luminometer(Costar) with a concentration of 2×10^5 cell in 1 ml culture medium for each well, and then incubated in an incubator with 6% CO2 atmosphere at 37° C. for 24 hours. The medium was removed from each well followed by rinsing with 0.5 ml cold DMEM one time. With MCR agonists (Example compounds) diluted stepwise using 200 μl DMEM including 500 μM IBMX (isobutylmethylxanthine), the cells were treated under the condition of the final DMSO concentration not exceeding 1%, and incubated for 30 minutes in the atmosphere of 6% CO2 at 37° C. Then, the cAMP amount in each cell was measured using Amersham cAMP assay Kit (TRK432).
More specifically, 14.4 μl of 6M PCA (60%) was added to each well, and allowed to be in ice for 10 minutes, and 200 μl sample was taken from each well and transferred to microcentrifuge tube. […]
On the technique in general: Cyclic AMP is a second messenger, typically raised through Gs and lowered through Gi signalling.
Take `CN1CCN(C(=O)[C@@H]2C[C@H](N(C(=O)[C@@H]3CCCO3)[C@H]3CC[C@@H](C)CC3)CN2C(=O)[C@@H]2CN(C(C)(C)C)C[C@H]2c2ccc(F)cc2F)CC1` [Example 21, (2S)-N-{(3S,5S)-1-{[(3S,4R)-1-tert-butyl-4-(2,4-difluorophenyl)pyrrolidin-3-yl]carbonyl}-5-[(4-methylpiperazin-1-yl)carbonyl]pyrrolidin-3-yl}-N-(cis-4-methylcyclohexyl)tetrahydrofuran-2-carboxamide]: the EC50 lay in the range of 0.1 to 10 nM.

On to `CC(=O)N(C1CCC(F)(F)CC1)[C@H]1C[C@@H](C(=O)N2CCN(C(C)C)CC2)N(C(=O)[C@@H]2CN(C(C)(C)C)C[C@H]2c2ccc(Cl)cc2)C1` [Example 29, N-{(3S,5S)-1-{[(3S,4R)-1-tert-butyl-4-(4-chlorophenyl)pyrrolidin-3-yl]carbonyl}5-[(4-isopropylpiperazin-1-yl)carbonyl]pyrrolidin-3-yl}-N-(4,4-difluorocyclohexyl)acetamide], for which the EC50 lay within 100 to 1000 nM. For `CN1CCN(C(=O)[C@@H]2C[C@H](N(C(=O)C(C)(C)CO)C3CCC(C)(C)CC3)CN2C(=O)[C@@H]2CN(C(C)(C)C)C[C@H]2c2ccc(Cl)cc2)CC1` [Example 4, N-{(3S,5S)-1-{[(3S,4R)-1-tert-butyl-4-(4-chlorophenyl)pyrrolidin-3-yl]carbonyl}-5-[(4-methylpiperazin-1-yl)carbonyl]pyrrolidine-3-yl}-N-(4,4-dimethylcyclohexyl)-3-hydroxy-2,2-dimethylpropanamide], the EC50 lay in the range of 0.1 to 10 nM. As for `CC(=O)N(C1CCC(C)(C)CC1)[C@H]1C[C@@H](C(=O)N2CCN(C)CC2)N(C(=O)[C@@H]2CN(C(C)(C)C)C[C@H]2c2ccc(F)cc2F)C1` [Example 5, N-{(3S,5S)-1-{[(3S,4R)-1-tert-butyl-4-(2,4-difluorophenyl)pyrrolidin-3-yl]carbonyl}-5-[(4-methylpiperazin-1-yl)carbonyl]pyrrolidin-3-yl}-N-(4,4-dimethylcyclohexyl)acetamide], the EC50 is 10 to 100 nM. For the compound `CC(C)(C)C(=O)N(c1ccc(F)cc1F)[C@H]1C[C@@H](C(=O)N2CCNCC2)N(C(=O)[C@@H]2CN(C(C)(C)C)C[C@H]2c2ccc(Cl)cc2)C1` [Example 81], the EC50 was in the range of 0.1 to 10 nM. Take `CN1CCN(C(=O)[C@@H]2C[C@H](N(C(=O)C(C)(C)CO)[C@H]3CC[C@@H](C)CC3)CN2C(=O)[C@@H]2CN(C(C)(C)C)C[C@H]2c2ccc(F)cc2F)CC1` [Example 20, N-{(3S,5S)-1-{[(3S,4R)-1-tert-butyl-4-(2,4-difluorophenyl)pyrrolidin-3-yl]carbonyl}-5-[(4-methylpiperazin-1-yl)carbonyl]pyrrolidin-3-yl}-3-hydroxy-2,2-dimethyl-N-(cis-4-methylcyclohexyl)propanamide]: the EC50 fell in the range of 0.1 to 10 nM. Still for that read-out and setting: then `CC(C)C(=O)N(c1ccc(F)cc1F)[C@H]1C[C@@H](C(=O)N2CCNCC2)N(C(=O)[C@@H]2CN(C(C)(C)C)C[C@H]2c2ccc(Cl)cc2)C1` [Example 78, N-[(3S,5S)-1-{[(3S,4R)-1-tert-butyl-4-(4-chlorophenyl)pyrrolidin-3-yl]carbonyl}-5-(piperazin-1-ylcarbonyl)pyrrolidin-3-yl]-N-(2,4-difluorophenyl)-2-methylpropanamide], with 0.1 to 10 nM; and `Cc1ccc(N2C[C@@H](C(=O)N3C[C@@H](N(C(=O)[C@@H]4CCCO4)C4CCC(C)(C)CC4)C[C@H]3C(=O)N3CCN(C)CC3)[C@H](c3ccc(Cl)cc3)C2)nn1` [Example 43, (2S)-N-{(3S,5S)-1-{[(3S,4R)-4-(4-chlorophenyl)-1-(6-methylpyridazin-3-yl)pyrrolidin-3-yl]carbonyl}-5-[(4-methylpiperazin-1-yl)carbonyl]pyrrolidin-3-yl}-N-(4,4-dimethylcyclohexyl)tetrahydrofuran-2-carboxamide], with 0.1 to 10 nM; and `CN1CCN(C(=O)[C@@H]2C[C@H](N(C(=O)[C@@H]3CCCO3)c3ccc(F)cc3F)CN2C(=O)[C@@H]2CN(C(C)(C)C)C[C@H]2c2ccc(Cl)cc2)CC1` [Example 77, (2S)-N-{(3S,5S)-1-{[(3S,4R)-1-tert-butyl-4-(4-chlorophenyl)pyrrolidin-3-yl]carbonyl}-5-[(4-methylpiperazin-1-yl)carbonyl]pyrrolidin-3-yl}-N-(2,4-difluorophenyl)tetrahydrofuran-2-carboxamide], with 10 to 100 nM.

As for `CCN1CCN(C(=O)[C@@H]2C[C@H](N(C(=O)[C@@H]3CCCO3)C3CCC(C)(C)CC3)CN2C(=O)[C@@H]2CN(C(C)(C)C)C[C@H]2c2ccc(Cl)cc2)CC1` [Example 12, (2S)-N-{(3S,5S)-1-{[(3S,4R)-1-tert-butyl-4-(4-chlorophenyl)pyrrolidin-3-yl]carbonyl}-5-[(4-ethylpiperazin-1-yl)carbonyl]pyrrolidin-3-yl}-N-(4,4-dimethylcyclohexyl)tetrahydrofuran-2-carboxamide], the EC50 was in the range of 0.1 to 10 nM. In the case of `CC(=O)N([C@H]1C[C@H](C(=O)N2CCN(C)CC2)N(C(=O)[C@@H]2CN(C(C)(C)C)C[C@H]2c2ccc(Cl)cc2)C1)[C@H]1CC[C@@H](C)CC1` [Example 37, N-{(3S,5R)-1-{[(3S,4R)-1-tert-butyl-4-(4-chlorophenyl)pyrrolidin-3-yl]carbonyl}-5-[(4-methylpiperazin-1-yl)carbonyl]pyrrolidin-3-yl}-N-(cis-4-methylcyclohexyl)acetamide], the EC50 was in the range of 0.1 to 10 nM. Same read-out and setting: the figure for `CN1CCN(C(=O)[C@@H]2C[C@H](N(C(=O)[C@@H]3CCCO3)C3CCC(F)(F)CC3)CN2C(=O)[C@@H]2CN(C3CCOCC3)C[C@H]2c2ccc(Cl)cc2)CC1` [Example 51, (2S)-N-{(3S,5S)-1-{[(3S,4R)-4-(4-chlorophenyl)-1-(tetrahydro-2H-pyran-4-yl)pyrrolidin-3-yl]carbonyl}-5-[(4-methylpiperazin-1-yl)carbonyl]pyrrolidin-3-yl}-N-(4,4-difluorocyclohexyl)tetrahydrofuran-2-carboxamide] is 10 to 100 nM. Same read-out and setting: then `CN1CCN(C(=O)[C@@H]2C[C@H](N(C(=O)C(C)(C)CO)C3CCC(C)(C)CC3)CN2C(=O)[C@@H]2CN(C3CC3)C[C@H]2c2ccc(Cl)cc2)CC1` [Example 58, N-{(3S,5S)-1-{[(3S,4R)-4-(4-chlorophenyl)-1-cyclopropylpyrrolidin-3-yl]carbonyl}-5-[(4-methylpiperazin-1-yl)carbonyl]pyrrolidin-3-yl}-N-(4,4-dimethylcyclohexyl)-3-hydroxy-2,2-dimethylpropanamide], with 0.1 to 10 nM. The same measure, in the same setting: the figure for `CN1CCN(C(=O)[C@@H]2C[C@H](N(C(=O)[C@@H]3CCCO3)[C@H]3CC[C@@H](C)CC3)CN2C(=O)[C@@H]2CN(c3ccccc3)C[C@H]2c2ccc(Cl)cc2)CC1` [Example 46, (2S)-N-{(3S,5S)-1-{[(3S,4R)-4-(4-chlorophenyl)-1-phenylpyrrolidin-3-yl]carbonyl}-5-[(4-methylpiperazin-1-yl)carbonyl]pyrrolidin-3-yl}-N-(cis-4-methylcyclohexyl)tetrahydrofuran-2-carboxamide] is 10 to 100 nM.

Still in this experiment, the particulars now being: specific activities of representative compounds; HEK cell lines expressing MC4R; method A or B, not said which; read-out: EC50.
On to `CN1CCN(C(=O)[C@@H]2C[C@H](N(C(=O)C(C)(C)CO)C3CCC(C)(C)CC3)CN2C(=O)[C@@H]2CN(C(C)(C)C)C[C@H]2c2ccc(Cl)cc2)CC1` [Example 4, N-{(3S,5S)-1-{[(3S,4R)-1-tert-butyl-4-(4-chlorophenyl)pyrrolidin-3-yl]carbonyl}-5-[(4-methylpiperazin-1-yl)carbonyl]pyrrolidine-3-yl}-N-(4,4-dimethylcyclohexyl)-3-hydroxy-2,2-dimethylpropanamide], for which the EC50 was 0.2 nM. Still for that read-out and setting: then `Cc1ccc(N2C[C@@H](C(=O)N3C[C@@H](N(C(=O)[C@@H]4CCCO4)C4CCC(C)(C)CC4)C[C@H]3C(=O)N3CCN(C)CC3)[C@H](c3ccc(Cl)cc3)C2)nn1` [Example 43, (2S)-N-{(3S,5S)-1-{[(3S,4R)-4-(4-chlorophenyl)-1-(6-methylpyridazin-3-yl)pyrrolidin-3-yl]carbonyl}-5-[(4-methylpiperazin-1-yl)carbonyl]pyrrolidin-3-yl}-N-(4,4-dimethylcyclohexyl)tetrahydrofuran-2-carboxamide], with 10 nM.
